Reference: US9334264B2, “NAMPT inhibitors” (AbbVie Inc., priority 2012, dated 2016)

Experiments:
NAMPT = NAMPT (Homo sapiens, UniProt P43490); assay: Time-Resolved Fluorescence Resonance Energy Transfer (TR-FRET) Binding Assay of NAMPT with PRPP; conditions: 200 μM PRPP and 2.5 mM ATP; 2 nM NAMPT, 2 nM probe, equilibrated 16 hours
Outline: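 Compounds were equilibrated for 16 hours before TR-FRET readout, with substrates present (200 μM PRPP, 2.5 mM ATP) to permit enzymatic modification. Final mix: 2 nM His-tagged NAMPT, 2 nM probe, 1 nM Tb-anti-His antibody, 2% DMSO.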

[1] = target: NAMPT (human, recombinant, C-terminally His-tagged) (Homo sapiens, UniProt P43490); assay: Time-Resolved Fluorescence Resonance Energy Transfer (TR-FRET) Binding Assay of NAMPT; conditions: absence of substrates; 6.8 nM NAMPT, 200 nM probe, equilibrated 3 hours
Outline: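 Compounds (typically 11 half-log dilutions, 2% DMSO final) equilibrated 3 h at room temperature with 6.8 nM human C-His NAMPT, 1 nM Tb-anti-His antibody and 200 nM fluorescent competitive probe in pH 7.5 HEPES buffer. IC50 derived by logistic fit of normalized TR-FRET ratio (520/495 nm).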

Chain of NAMPT (P43490 whole entry): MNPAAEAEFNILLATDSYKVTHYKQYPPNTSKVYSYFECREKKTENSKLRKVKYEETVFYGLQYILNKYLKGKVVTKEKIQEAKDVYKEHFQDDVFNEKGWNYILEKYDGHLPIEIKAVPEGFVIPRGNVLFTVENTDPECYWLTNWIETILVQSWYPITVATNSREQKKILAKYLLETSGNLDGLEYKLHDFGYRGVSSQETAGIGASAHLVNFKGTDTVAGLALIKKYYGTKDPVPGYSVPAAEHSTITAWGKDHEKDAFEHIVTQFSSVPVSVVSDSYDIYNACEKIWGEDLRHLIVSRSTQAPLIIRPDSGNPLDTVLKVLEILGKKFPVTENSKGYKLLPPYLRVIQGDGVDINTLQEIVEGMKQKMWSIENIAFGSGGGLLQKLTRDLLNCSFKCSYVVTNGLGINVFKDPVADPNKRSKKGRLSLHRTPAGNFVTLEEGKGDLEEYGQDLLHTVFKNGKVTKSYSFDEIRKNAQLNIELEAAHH
Chain of NAMPT (human, recombinant, C-terminally His-tagged) (P43490 whole entry): as above

Structure (SMILES) | IC50 (NAMPT) [nM] | IC50 [1] [nM]
COCCC(=O)N(Cc1scnc1C)c1ncc(C(=O)NCCCn2ccnc2)s1 [Example 99, N-[3-(1H-imidazol-1-yl)propyl]-2-{(3-methoxypropanoyl)[(4-methyl-1,3-thiazol-5-yl)methyl]amino}-1,3-thiazole-5-carboxamide] | 1.5 | 3560
COCCC(=O)N(Cc1ccccn1)c1ncc(C(=O)NCCCn2ccnc2)s1 [Example 121, N-[3-(1H-imidazol-1-yl)propyl]-2-[(3-methoxypropanoyl)(pyridin-2-ylmethyl)amino]-1,3-thiazole-5-carboxamide] | 9.25 | > 10000
O=C(NCCCn1ccnc1)c1cnc(N2CCN(c3ccc(F)cc3)C2=O)s1 [Example 204, 2-[3-(4-fluorophenyl)-2-oxoimidazolidin-1-yl]-N-[3-(1H-imidazol-1-yl)propyl]-1,3-thiazole-5-carboxamide] | 1.46 | 3730
COCCCN(C(=O)CCOC)c1ncc(C(=O)NCCCn2ccnc2)s1 [Example 176, N-[3-(1H-imidazol-1-yl)propyl]-2-[(3-methoxypropanoyl)(3-methoxypropyl)amino]-1,3-thiazole-5-carboxamide] | 0.365 | 7360
COCCN(C(=O)Cc1ccc(Oc2ccccc2)cc1)c1ncc(C(=O)NCCCn2ccnc2)s1 [Example 186, N-[3-(1H-imidazol-1-yl)propyl]-2-{(2-methoxyethyl)[(4-phenoxyphenyl)acetyl]amino}-1,3-thiazole-5-carboxamide] | 1.23 | 1100
COCCC(=O)N(Cc1ccc(OC)nc1)c1ncc(C(=O)NCCCn2ccnc2)s1 [Example 98, N-[3-(1H-imidazol-1-yl)propyl]-2-{(3-methoxypropanoyl)[(6-methoxypyridin-3-yl)methyl]amino}-1,3-thiazole-5-carboxamide] | 1.47 | 1500
CCN(CC)C(=O)CN(Cc1ccc(F)cc1)c1ncc(C(=O)NCCCn2ccnc2)s1 [Example 21, 2-{[2-(diethylamino)-2-oxoethyl](4-fluorobenzyl)amino}-N-[3-(1H-imidazol-1-yl)propyl]-1,3-thiazole-5-carboxamide] | 505 | 996
CCC(CNC(=O)N(Cc1ccc(F)cc1)c1ncc(C(=O)NCCCn2ccnc2)s1)OC (stereo not drawn) [Example 90, 2-{(4-fluorobenzyl)[(2-methoxybutyl)carbamoyl]amino}-N-[3-(1H-imidazol-1-yl)propyl]-1,3-thiazole-5-carboxamide] | 2.25 | > 10000
O=C(NCCCn1ccnc1)c1cnc(N(CCCN2CCOCC2)Cc2ccc(F)cc2)s1 [Example 7, 2-{(4-fluorobenzyl)[3-(morpholin-4-yl)propyl]amino}-N-[3-(1H-imidazol-1-yl)propyl]-1,3-thiazole-5-carboxamide] | 486 | 1610
N#Cc1ccc(CN(C(=O)CC2CCOCC2)c2ncc(C(=O)NCCCn3ccnc3)s2)cc1 [Example 51, 2-[(4-cyanobenzyl)(tetrahydro-2H-pyran-4-ylacetyl)amino]-N-[3-(1H-imidazol-1-yl)propyl]-1,3-thiazole-5-carboxamide] | 4.94 | > 10000
CN1CCN(CC(=O)N(Cc2ccc(F)cc2)c2ncc(C(=O)NCCCn3ccnc3)s2)CC1 [Example 30, 2-{(4-fluorobenzyl)[(4-methylpiperazin-1-yl)acetyl]amino}-N-[3-(1H-imidazol-1-yl)propyl]-1,3-thiazole-5-carboxamide] | 2.29 | > 10000
COCCC(=O)N(Cc1cnn(C)c1)c1ncc(C(=O)NCCCn2ccnc2)s1 [Example 111, N-[3-(1H-imidazol-1-yl)propyl]-2-{(3-methoxypropanoyl)[(1-methyl-1H-pyrazol-4-yl)methyl]amino}-1,3-thiazole-5-carboxamide] | 5.87 | > 10000
COCCC(=O)N(CCCNC(C)=O)c1ncc(C(=O)NCCCn2ccnc2)s1 [Example 201, 2-{[3-(acetylamino)propyl](3-methoxypropanoyl)amino}-N-[3-(1H-imidazol-1-yl)propyl]-1,3-thiazole-5-carboxamide] | 0.457 | > 10000
COCCC(=O)N(CCN1CCOC1=O)c1ncc(C(=O)NCCCn2ccnc2)s1 [Example 198, N-[3-(1H-imidazol-1-yl)propyl]-2-{(3-methoxypropanoyl)[2-(2-oxo-1,3-oxazolidin-3-yl)ethyl]amino}-1,3-thiazole-5-carboxamide] | 0.633 | 2610
CC(C)CCN(C(=O)[C@@H](C)Oc1ccccc1)c1ncc(C(=O)NCCCn2ccnc2)s1 [Example 133, N-[3-(1H-imidazol-1-yl)propyl]-2-{(3-methylbutyl)[(2R)-2-phenoxypropanoyl]amino}-1,3-thiazole-5-carboxamide] | 0.527 | 58.9
COCCC(=O)N(Cc1ccc(F)cc1)c1ncc(C(=O)NCCCn2ccnc2)s1 [Example 25, 2-[(4-fluorobenzyl)(3-methoxypropanoyl)amino]-N-[3-(1H-imidazol-1-yl)propyl]-1,3-thiazole-5-carboxamide] | 1.4 | 1630
COCCNC(=O)N(CCc1ccc(Cl)cn1)c1ncc(C(=O)NCCCn2ccnc2)s1 [Example 209, 2-{[2-(5-chloropyridin-2-yl)ethyl][(2-methoxyethyl)carbamoyl]amino}-N-[3-(1H-imidazol-1-yl)propyl]-1,3-thiazole-5-carboxamide] | 0.245 | 6700
CN(C)C1CCN(CC(=O)N(Cc2ccc(F)cc2)c2ncc(C(=O)NCCCn3ccnc3)s2)C1 (stereo not drawn) [Example 39, 2-[{[3-(dimethylamino)pyrrolidin-1-yl]acetyl}(4-fluorobenzyl)amino]-N-[3-(1H-imidazol-1-yl)propyl]-1,3-thiazole-5-carboxamide] | 0.938 | 2390
O=C(NCCCn1ccnc1)c1cnc(N(Cc2ccc(F)cc2)C(=O)NC2CCOC2)s1 (stereo not drawn) [Example 91, 2-[(4-fluorobenzyl)(tetrahydrofuran-3-ylcarbamoyl)amino]-N-[3-(1H-imidazol-1-yl)propyl]-1,3-thiazole-5-carboxamide] | 0.543 | 8690
CCN(CC)CCN(C(=O)CCOC)c1ncc(C(=O)NCCCn2ccnc2)s1 [Example 191, 2-{[2-(diethylamino)ethyl](3-methoxypropanoyl)amino}-N-[3-(1H-imidazol-1-yl)propyl]-1,3-thiazole-5-carboxamide] | 0.265 | > 10000
CC(C)CCN(C(=O)Cc1ccc(F)cc1)c1ncc(C(=O)NCCCn2ccnc2)s1 [Example 139, 2-{[(4-fluorophenyl)acetyl](3-methylbutyl)amino}-N-[3-(1H-imidazol-1-yl)propyl]-1,3-thiazole-5-carboxamide] | 0.251 | 56.1
N#Cc1ccc(CN(C(=O)NCCCCO)c2ncc(C(=O)NCCCn3ccnc3)s2)cc1 [Example 132, 2-{(4-cyanobenzyl)[(4-hydroxybutyl)carbamoyl]amino}-N-[3-(1H-imidazol-1-yl)propyl]-1,3-thiazole-5-carboxamide] | 1.02 | 4850
CC(C)CCN(C(=O)C1CCOC1)c1ncc(C(=O)NCCCn2ccnc2)s1 (stereo not drawn) [Example 155, N-[3-(1H-imidazol-1-yl)propyl]-2-[(3-methylbutyl)(tetrahydrofuran-3-ylcarbonyl)amino]-1,3-thiazole-5-carboxamide] | 0.254 | 669
COCCC(=O)N(CC1CCCO1)c1ncc(C(=O)NCCCn2ccnc2)s1 (stereo not drawn) [Example 178, N-[3-(1H-imidazol-1-yl)propyl]-2-[(3-methoxypropanoyl)(tetrahydrofuran-2-ylmethyl)amino]-1,3-thiazole-5-carboxamide] | 0.813 | 6970
CCOC(=O)CC(C)NC(=O)N(Cc1ccc(C#N)cc1)c1ncc(C(=O)NCCCn2ccnc2)s1 (stereo not drawn) [Example 161, ethyl 3-{[(4-cyanobenzyl)(5-{[3-(1H-imidazol-1-yl)propyl]carbamoyl}-1,3-thiazol-2-yl)carbamoyl]amino}butanoate] | 215 | > 10000
CC(C)CCN(C(=O)C(C)c1ccccc1)c1ncc(C(=O)NCCCn2ccnc2)s1 (stereo not drawn) [Example 138, N-[3-(1H-imidazol-1-yl)propyl]-2-[(3-methylbutyl)(2-phenylpropanoyl)amino]-1,3-thiazole-5-carboxamide] | 0.541 | 55.5
COCCC(=O)N(Cc1ccccc1C)c1ncc(C(=O)NCCCn2ccnc2)s1 [Example 119, N-[3-(1H-imidazol-1-yl)propyl]-2-[(3-methoxypropanoyl)(2-methylbenzyl)amino]-1,3-thiazole-5-carboxamide] | 1.89 | 4570
N#Cc1ccc(CN(C(=O)NC2CC(C(=O)O)C2)c2ncc(C(=O)NCCCn3ccnc3)s2)cc1 (stereo not drawn) [Example 164, 3-{[(4-cyanobenzyl)(5-{[3-(1H-imidazol-1-yl)propyl]carbamoyl}-1,3-thiazol-2-yl)carbamoyl]amino}cyclobutanecarboxylic acid] | 583 | > 10000
CC(C)CCN(Cc1ccccc1Cl)c1ncc(C(=O)NCCCn2ccnc2)s1 [Example 57, 2-[(2-chlorobenzyl)(3-methylbutyl)amino]-N-[3-(1H-imidazol-1-yl)propyl]-1,3-thiazole-5-carboxamide] | 1160 | > 10000
O=C(NCCCn1ccnc1)c1cnc(N(Cc2ccc(F)cc2)C(=O)CN2CCN(CCO)CC2)s1 [Example 42, 2-[(4-fluorobenzyl){[4-(2-hydroxyethyl)piperazin-1-yl]acetyl}amino]-N-[3-(1H-imidazol-1-yl)propyl]-1,3-thiazole-5-carboxamide] | 24.6 | > 10000
